Measured values as given in US5023084A, “Transdermal estrogen/progestin dosage unit, system and process” (Rutgers, The State University of New Jersey, priority 1988, dated 1991).

assay: Permeation of estradiol and levonorgestrel across adult male human cadaver skin; type: in vitro ADME; settings: not given
Method: Layer 2 contains levonorgestrel and layer 4 contains 17-beta-estradiol.
The primary and secondary enhancing agents are incorporated into levonorgestrel containing layer 2. The amounts of primary and secondary enhancing agents specified in Table 16 are used in making dosage units.
Permeation rates (mcg/sq. cm/hr±S.D.) are determined using the in vitro procedure of Y. W. Chien et al. identified in Example 1 using human cadaver skin.

SMILES	Estradiol/Levonorgestrel Rate/Ratio	Permeation Rate, Estradiol	Permeation Rate, Levonorgestrel
CC(=O)Oc1c(C)c(C)c2c(c1C)CCC(C)(CCCC(C)CCCC(C)CCCC(C)C)O2 (racemic) [dl-alpha-Tocopherol Acetate]	1.0 (0.07)	0.18 (0.024) mcg/sq. cm/hr	0.182 (0.029) mcg/sq. cm/hr
Cc1c(C)c2c(c(C)c1O)CCC(C)(CCCC(C)CCCC(C)CCCC(C)C)O2 (racemic) [dl-alpha-Tocopherol]	1.6 (0.10)	0.20 (0.031) mcg/sq. cm/hr	0.127 (0.021) mcg/sq. cm/hr
CC1=C(/C=C/C(C)=C/C=C/C(C)=C/C(=O)O)C(C)(C)CCC1 [Retinoic Acid, retinoic acid]	1.4 (0.16)	0.22 (0.033) mcg/sq. cm/hr	0.159 (0.024) mcg/sq. cm/hr
CC1=C(/C=C/C(C)=C/C=C/C(C)=C/CO)C(C)(C)CCC1 [Retinol, retinol]	1.5 (0.11)	0.21 (0.040) mcg/sq. cm/hr	0.141 (0.019) mcg/sq. cm/hr
CCCCCCCCCCCCCCCC(=O)OC/C=C(C)/C=C/C=C(C)/C=C/C1=C(C)CCCC1(C)C [Retinyl Palmitate, retinyl palmitate]	1.0 (0.13)	0.18 (0.030) mcg/sq. cm/hr	0.176 (0.027) mcg/sq. cm/hr
CCCCCCCCCCO [n-Decyl Alcohol, n-decyl alcohol]	2.4 (0.21)	–	–

same assay, conditions: dosage unit with […] W/W n-decyl alcohol, with or without 5.0% secondary enhancer; S.D. in parentheses

SMILES	Permeation Rate, Estradiol	Permeation Rate, Levonorgestrel
CCCCCCCCCCO [n-Decyl Alcohol, n-decyl alcohol]	0.19 (0.031) mcg/sq. cm/hr	0.080 (0.017) mcg/sq. cm/hr

assay: not given; settings: oral; cited from earlier work

SMILES	17-beta-estradiol destroyed when taken orally
C[C@]12CC[C@@H]3c4ccc(O)cc4CC[C@H]3[C@@H]1CC[C@@H]2O [17-beta-estradiol]	over 90%
